From patent publication US20230218706A1 (9 Meters Biopharma, Inc., priority 2020, published 2023)
Entries after “also recorded” stand apart in the source; their conditions may differ. Where a SMILES comes first, the peptide text is derived from it. Where no end group is shown, it is not given here. [ ]: non-standard residue; d: D form.

Assays:
[1] = system: ischemic-injured porcine jejunum; assay: Ex vivo recovery of transepithelial electrical resistance (TEER/TER) of ischemic-injured porcine jejunum in Ussing chambers; assay type: cell-based, pig; settings: for induction of recovery of ischemic-injured tissue: FIG. 2; for effect of excess fragment on action of Analog #6: 10 μM fragment applied 30 mins before 0.1 μM Analog #6 (100 fold excess), FIGS. 8-10; for activity as tight junction regulators: fragment alone; for effect of fragment on larazotide activity: fragment mixed with full-length larazotide (10 μM fragment + 1 μM larazotide, FIG. 7)
Text: In order to evaluate the activity profile of larazotide and larozotide analogs, an ex vivo assay was employed measuring transepithelial electrical resistance (TEER) of ischemic-injured porcine jejunum.
Several larazotide analogs were initially tested in an ex vivo model, measuring the recovery of an ischemic-injured pig jejunum tissue.
Six-to-eight-week-old Yorkshire crossbred pigs of either sex were individually housed and maintained on a commercially pelleted feed. Pigs were held off feed for 12 hours prior to experimental surgery. General anesthesia was induced with xylazine (1.5 mg/kg IM), ketamine (11 mg/kg IM), followed by mask delivery of isoflurane vaporized in 100% 02. Pigs were subsequently orotracheally intubated, followed by continued delivery of isoflurane in 100% 02 to maintain a surgical plane of anesthesia. An intravenous catheter was placed in an ear vein for delivery of fluids during surgery (lactated Ringer solution, 15 m1·kg^−1h^−1, IV). The distal jejunum was approached via a ventral midline incision. Jejunal segments were delineated by ligating the intestine at 8-10 cm intervals with 2-0 silk, and were subjected to segmental ischemia by ligating the local mesenteric blood supply with 2-0 silk for 45-minutes.
(§1) After 45-minutes of ischemia, the pigs were euthanized, and intestinal segments were collected. Non-ischemic control tissue was also collected at this time. Following tissue collection, the seromuscular layer was stripped from the mucosa while the tissue was bathed in oxygenated (95% 02, 5% CO2) Ringer's solution (in mmol/L: 154 Na^+, 6.3 K^+, 137 Cl^−, and 24 HCO3−; pH 7.4). The mucosa was subsequently mounted in 1.1-cm^2 aperture Ussing chambers, as described in previous studies, which are herein incorporated by reference in their entireties, Moeser, A. J.; Nighot, P. K.; Ryan, K. A.; Wooten, J. G.; Blikslager, A. T. Prostaglandin-mediated inhibition of Na+/H+ exchanger isoform 2 stimulates recovery of barrier function in ischemia-injured intestine. Am J Physiol Gastrointest Liver Physiol (2006), 291, G885-94; and Jin, Y.; Blikslager, A. T. Myosin light chain kinase mediates intestinal barrier dysfunction via occludin endocytosis during anoxia/reoxygenation injury. Am J Physiol Cell Physiol (2016), 311, C996-C1004. Tissues were bathed on both the mucosal and serosal sides with 10 mL Ringer's solution. The mucosal bathing solution contained 10 mM mannitol while the serosal side was osmotically balanced with 10 mM glucose. Bathing solutions were oxygenated (95% O2, 5% CO2) and circulated in water-jacketed reservoirs. The spontaneous potential difference (PD) was measured using Ringer-agar bridges connected to calomel electrodes, and the PD was short-circuited through Ag—AgCl electrodes using a voltage clamp that was corrected for fluid resistance. TER (Ω·cm^2) was calculated from the spontaneous PD and short-circuit current (Isc). If the spontaneous PD was between −1.0 and 1.0 mV, tissues were current clamped at ±100 μA for 5-seconds, and the PD was recorded. Isc and PD were recorded at 15-minute intervals over a 4-hour experiment. After tissues were mounted on Ussing chambers, all tissues were allowed to acclimate for a period of 30-minutes to establish stable baseline measurements, after which experimental treatments of larazotide or larazotide analogs was added to the apical chamber.

[2] = system: pig ischemic jejunum tissue; assay: Ex vivo assessment of peptide stability (degradation by brush border enzymes) in pig ischemic jejunum tissue; settings: for peptide concentration, T = 0 mins after addition / peptide concentration, T = 30 mins after addition / peptide concentration, T = 120 mins after addition: 1 μm addition of each peptide to pig ischemic jejunum tissue
Text: as §1, with “chamber. Tissues were monitored by measuring transepithelial resistance (TER) for 240 min. Samples of Ringers solution were collected at select timepoints and quenched with 5% trifluoroacetic acid (TFA) solution (in 80% acetonitrile (ACN): 20% DI water). Quenched samples were centrifuged at 13000×g for 5-minutes and the resulting supernatants were stored at −80° C. for future MS analysis.” for “chamber.”
The recovery effects of Analogs #5 and 6 were also compared in an ex vivo test for recovery of ischemic-injured pig jejunum tissue. […] Analogs #5 and 6 were further compared for peptide stability—Analog #5 (D-Val), Analog #6 (All D) and larazotide concentrations were measured at TO, 30, and 120 minutes after 1 μm addition of each to pig ischemic jejunum tissue.
A set of experiments was conducted in order to compare the all-D amino acid larazotide analog (Analog #6) with larazotide in terms of degradation profiles, recovery effects, and dose response profiles.

Celiac disease symptoms = settings: cited from earlier work
[3] = system: BLM-induced pulmonary fibrosis model mice

Q: With “H2N-GGV(dL)VQPG-OH (H-GGV[dL]VQPG-OH) [Analog #1]” as the molecule, how does the “induction of recovery of ischemic-injured tissue” value (“induction” for short) [1] read?
A: The value was “no significant induction of recovery”.

Q: For “Gly-(d)Val-(d)Leu-(d)Val-(d)Gln-(d)Pro-Gly [Analog A6F1]”, which “effect of excess fragment on action of Analog #6” value [1] is on record?
A: Its value is “less significant impact on the action of the all-D amino acid larazotide analog”.

Q: With `CC(C)C[C@H](NC(=O)[C@H](NC(=O)CNC(=O)CN)C(C)C)C(=O)N[C@H](C(=O)N[C@@H](CCC(N)=O)C(=O)N1CCC[C@H]1C(=O)NCC(=O)O)C(C)C` [Analog #5, H2N-GG(dV)LVQPG-OH] (H-GG[dV]LVQPG-OH) as the molecule, how does the “peptide concentration, T = 0 mins after addition” value [2] read?
A: The value was 0.510 µg/mL.

Q: And the “peptide concentration, T = 30 mins after addition” value [2]?
A: Its value is 0.012 µg/mL.

Q: And the “peptide concentration, T = 120 mins after addition” value [2]?
A: The value was 0.005 µg/mL.

Q: What does the source list for “H-GGVLVQPG-OH [Larazotide, reference compound]”?
A: activity at higher doses in clinical trials (Celiac disease symptoms; higher doses (e.g., 1 mg and 2 mg doses)): attenuation of activity, or no activity at all; reduction of Celiac disease symptoms (Celiac disease symptoms; lower doses (e.g., 0.5 mg dose)): significant benefit at reducing Celiac disease symptoms; dose-response of repair of ischemic-injured intestine (TEER) ([1]; FIG. 1, low, middle and high dose range): “bell-shaped” dose-dependent manner; peptide concentration, T = 0 mins after addition [2]: 0.508 µg/mL; peptide concentration, T = 30 mins after addition [2]: 0.212 µg/mL; peptide concentration, T = 120 mins after addition [2]: 0.007 µg/mL

Q: Which “activity as tight junction regulators” value [1] does the source give for VLVQPG [Fragment 2, reference compound] here?
A: The value was “inactive as tight junction regulators”.

Q: What about the “effect of fragment on larazotide activity” value [1] of the same molecule?
A: The value was “inhibit larazotide activity; also recorded: activity is completely abolished”.

Q: With “GVLVQPG [Fragment 1, reference compound]” as the molecule, how does the “activity as tight junction regulators” value [1] read?
A: Its value is “inactive as tight junction regulators”.

Q: And the “effect of fragment on larazotide activity” value [1]?
A: The value was “inhibit larazotide activity; also recorded: activity is completely abolished”.

Q: With “H2N-(dV)GGVLVQPG-OH (H-[dV]GGVLVQPG-OH; SMILES CC(C)C[C@H](NC(=O)[C@@H](NC(=O)CNC(=O)CNC(=O)[C@H](N)C(C)C)C(C)C)C(=O)N[C@H](C(=O)N[C@@H](CCC(N)=O)C(=O)N1CCC[C@H]1C(=O)NCC(=O)O)C(C)C) [Analog #2]” as the molecule, how does the “induction” value [1] read?
A: Its value is “no significant induction of recovery”.

Q: For “H2N-VGGVLVQPG-OH (H-VGGVLVQPG-OH) [Analog #3]”, which “induction” value [1] is on record?
A: Its value is “no significant induction of recovery”.

Q: With `CC(C)C[C@@H](NC(=O)[C@H](NC(=O)CNC(=O)CN)C(C)C)C(=O)N[C@@H](C(=O)N[C@H](CCC(N)=O)C(=O)N1CCC[C@@H]1C(=O)NCC(=O)O)C(C)C` [Analog #6, H2N-GG(dV)(dL)(dV)(dQ)(dP)G-OH] (H-GG[dV][dL][dV][dQ][dP]G-OH) as the molecule, how does the “lung fibrosis, Ashcroft grading of Masson's Trichrome-stained right lung sections” value ([3]; 1 mg/kg orally once daily Day 0 to 20, sacrifice Day 21, FIG. 18) read?
A: The value was “less fibrosis than either the vehicle or larazotide samples”.

Q: And the “therapeutic effect in mouse model of pulmonary fibrosis” value ([3]; provided orally)?
A: Its value is “better therapeutic effect than larazotide”.

Q: And the “dose response of repair of injured intestine (TER)” value ([1]; 0.01 μM, 0.1 μM, 1 μM and 10 μM, FIG. 6)?
A: The value was “did not exhibit the distinct bell-shaped dose-response of larazotide”.

Q: And the “recovery of TER” value ([1]; 0.1 μM, FIG. 6)?
A: The value was “induced good recovery of TER”.

Q: What about the “recovery of ischemic-injured intestine (transepithelial electrical resistance)” value ([1]; 1 μM, recovery period of 240 minutes, FIG. 5) of the same molecule?
A: The value was “induces recovery to substantially the same extent as larazotide”.

Q: What about the “recovery effect on ischemic-injured pig jejunum tissue” value ([1]; FIG. 3, Analog #6 compared with Analog #5) of the same molecule?
A: Its value is “pronounced recovery effect as compared to Analog #5”.

Q: And the “peptide concentration, T = 0 mins after addition” value [2]?
A: The value was 0.517 ug/ml ug/mL.

Q: What about the “peptide concentration, T = 30 mins after addition” value [2] of the same molecule?
A: The value was 0.436 µg/mL.

Q: And the “peptide concentration, T = 120 mins after addition” value [2]?
A: The value was 0.086 µg/mL.

Q: What about the “resistance to brush border enzyme degradation” value ([2]; jejunum epithelial brush border enzymes, in words (Table 2, FIG. 4)) of the same molecule?
A: Its value is “significant resistance to brush border enzyme degradation as compared to larazotide and Analog #5; also recorded: significantly more resistant to degradation than larazotide”.

Q: With “(d)Val-(d)Leu-(d)Val-(d)Gln-(d)Pro-Gly [Analog A6F2]” as the molecule, how does the “effect of excess fragment on action of Analog #6” value [1] read?
A: The value was “does not appear to be meaningfully blocked”.
